# From article PMC6562427, “A New Tyrosinase Inhibitor from the Red Alga Symphyocladia latiuscula (Harvey) Yamada (Rhodomelaceae)” (Marine Drugs, 2019)
# Like-named read-outs stand apart in the source and are kept apart here.
# Key:
# mushroom tyrosinase [1] = target: T1, mushroom tyrosinase (Agaricus bisporus, UniProt C7FF04); test: Mushroom tyrosinase inhibitory assay (spectrophotometric); format: biochemical; conditions: mean ± SD, n = 3
# T1 construct: purchased Sigma Aldrich
# Procedure: The inhibitory activity of mushroom tyrosinase was carried out using a spectrophotometric method described in [27] with slight modifications. […] Then, 20 µL of tyrosinase was added and incubated at room temperature for between 10 and 30 minutes. Absorbance was measured at 490 nm after incubation.
# B16F10 melanoma cells = test: Melanin content assay in α-MSH-stimulated cells; format: cell-based, mouse; conditions: for effect on melanin content: 6.25, 12.5 and 25 µM; for melanin content: α-MSH alone 151.72%
# Procedure: Intracellular melanin content was determined according to a previously reported procedure with minor modifications. Briefly, B16F10 cells were seeded in a 24-well plate at 2 × 10,000 cells/well and incubated for 24 h in DMEM containing 10% FBS. Cells were pretreated with 6.25, 12.5, and 25 μM test compounds for 1 h and stimulated with 5 μM α-MSH for 48 h. […] The cells were washed with PBS and dissolved in 1 N NaOH containing 10% DMSO by boiling at 80 °C for 30 min. The cell lysates were centrifuged at 14,000 rpm for 20 min, and absorbance of the supernatant was measured at 405 nm. Melanin content was determined by normalizing the absorbance with total protein content.
# [2] = Cell viability, MTT assay; format: cell-based; conditions: mouse
# Procedure: B16F10 mouse melanoma cells obtained from American Type Culture Collection (Manassas, VA, USA) were maintained in 10% FBS in high-glucose DMEM containing 100 U/mL penicillin and 100 μg/mL streptomycin at 37 °C in a humidified atmosphere with 5% CO2. Cytotoxicity was evaluated using a 3-(4,5-dimethylthiazol-2-yl)-2,5-diphenyltetrazolium bromide (MTT) assay. After 95% of confluence, B16F10 cells were seeded in a 96-well plate at 10,000 cells/well and incubated for 24 h in DMEM supplemented with 10% FBS. The cells were then fed fresh serum-free DMEM containing different concentrations (25 to 100 μM) of the test compounds and incubated for 48 h. After that, the cells were incubated with 100 μL of MTT at a concentration of […] in phosphate-buffered saline (PBS) for 2 h. Absorbance was measured at 490 nm by a microplate reader (Promega Corporation Instrument, USA) after 2 h of incubation. The viability of cells at 48 h upon co-treatment with α-MSH was evaluated by treating cells with 5 μM α-MSH 1 h after the treatment with test compounds.
# [3] = tested on: tyrosinase protein expression in α-MSH-stimulated B16F10 cells; test: Tyrosinase protein levels via western blotting; format: cell-based, mouse
# Procedure: The cell suspensions were centrifuged at 16,000 × g for 5 min, and the cell pellets were lysed in a lysis buffer and incubated on ice for 10 min. The cell lysates were centrifuged at 16,000 × g for 10 min, and the supernatant (total protein) was normalized using a Bradford protein assay kit. Aliquots of protein were resolved by sodium dodecyl sulfate-polyacrylamide gel electrophoresis and transferred onto a nitrocellulose membrane. The membrane was blocked with 10% nonfat milk (w/v) in tris-buffered saline with tween (TBST) (0.1 M Tris-HCl, pH 7.5, 1.5 M NaCl, 1% Tween20) for 2 h and incubated for approximately 24 h with TYR primary antibody. The immunoblots were then incubated with appropriate secondary antibodies for 2 h and detected using an enhanced chemiluminescence detection kit.
# [4] = target: T2, tyrosinase in α-MSH-induced B16F10 melanoma cells (Mus musculus, UniProt P11344); test: Cellular tyrosinase assay (L-DOPA oxidation); format: cell-based; conditions: 5 µM α-MSH 48 h; for effect on intracellular tyrosinase activity: 6.25, 12.5 and 25 µM; for intracellular tyrosinase level: α-MSH alone 215.73%
# T2 construct: the supernatant was used as cellular tyrosinase solution; endogenous in cells; host or cells: B16F10 melanoma cells, α-MSH stimulated
# T2 sequence (P11344 19-533): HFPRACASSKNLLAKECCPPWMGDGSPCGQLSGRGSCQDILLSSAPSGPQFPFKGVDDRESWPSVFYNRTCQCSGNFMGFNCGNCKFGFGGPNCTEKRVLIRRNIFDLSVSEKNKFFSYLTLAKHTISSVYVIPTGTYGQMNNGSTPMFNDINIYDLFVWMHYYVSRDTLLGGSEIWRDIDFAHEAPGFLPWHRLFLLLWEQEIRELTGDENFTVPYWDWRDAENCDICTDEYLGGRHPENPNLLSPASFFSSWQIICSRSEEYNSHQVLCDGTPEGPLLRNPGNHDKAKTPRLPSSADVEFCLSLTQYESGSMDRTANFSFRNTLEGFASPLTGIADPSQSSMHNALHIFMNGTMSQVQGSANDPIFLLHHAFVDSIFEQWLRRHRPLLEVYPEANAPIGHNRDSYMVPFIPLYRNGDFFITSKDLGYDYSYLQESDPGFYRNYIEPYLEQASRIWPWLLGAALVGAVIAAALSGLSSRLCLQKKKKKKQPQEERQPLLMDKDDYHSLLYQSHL
# Procedure: Intracellular tyrosinase inhibitory activity was evaluated by measuring the rate of oxidation of L-DOPA [57]. […] The cells were washed with PBS and lysed with a radio immunoprecipitation assay buffer. The cell lysates were kept in a deep freezer (−80 °C) for 1 h. After defrosting the cell lysates, the cellular extracts were purified by centrifugation at 14,000 rpm for 20 min at 4 °C, and the supernatant was used as cellular tyrosinase solution. A total of 80 µL of supernatant and 20 µL of L-DOPA (2 mg/mL) were added to a 96-well plate and incubated at 37 °C for 45 min. Dopachrome formation was then measured spectrophotometrically at 450 nm using a microplate spectrophotometer (Molecular Devices). Intracellular tyrosinase activity was calculated as the percentage of control.
# mushroom tyrosinase [5] = target: T1, mushroom tyrosinase; test: Kinetic study against mushroom tyrosinase (Lineweaver-Burk and secondary plots); format: biochemical
# Procedure: The inhibition type was determined using a Lineweaver–Burk plot. The apparent slope (Kmapp/Vmaxapp) and intercept (1/Vmaxapp) versus different inhibitor concentrations was used to determine the inhibition constant (Ki). Different kinetic parameters were obtained for different concentrations of the substrate (0.5, 0.75, and 1 mM) and inhibitors (compound 1—0.0, 4.0, 6.6, and 9.3 µM; compound 3—0, 2.5, 2.6, and 2.7 µM). Sigmaplot version 12.0 (SPSS Inc., Chicago, IL, USA) was employed to generate the plots.
# [6] = IC50 L-Tyrosine, substrate L-tyrosine
# T1 sequence (C7FF04 1-392): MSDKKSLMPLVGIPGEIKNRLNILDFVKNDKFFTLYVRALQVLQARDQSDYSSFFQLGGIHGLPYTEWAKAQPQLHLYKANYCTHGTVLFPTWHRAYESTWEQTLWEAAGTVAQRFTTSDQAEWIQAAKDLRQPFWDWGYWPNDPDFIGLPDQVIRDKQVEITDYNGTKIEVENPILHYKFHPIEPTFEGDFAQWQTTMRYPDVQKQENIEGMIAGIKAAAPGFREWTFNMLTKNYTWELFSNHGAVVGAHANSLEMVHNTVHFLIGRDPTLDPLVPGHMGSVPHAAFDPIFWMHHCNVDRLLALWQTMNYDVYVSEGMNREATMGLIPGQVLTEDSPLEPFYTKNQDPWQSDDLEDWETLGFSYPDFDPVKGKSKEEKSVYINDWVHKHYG
structure (smiles),measurement,setting,value
"COCc1c(Br)c(O)c(O)c(Br)c1Br [Compound 2, 2,3,6-tribromo-4,5-dihydroxybenzyl methyl ether]",IC50,"mushroom tyrosinase [1]; IC50 L-DOPA, substrate L-DOPA",> 300 µM
same,IC50,mushroom tyrosinase [1]; [6],113.9 ± 0.75 µM
same,effect on melanin content,B16F10 melanoma cells; 5 µM α-MSH 48 h,no significant reduction
same,"viability at 48 h, 100 µM","[2]; 100 µM, 48 h, MTT, read-out: viable cells",~100%
same,tyrosinase protein expression,"[3]; 6.25, 12.5 and 25 μM, 48 h",did not reduce expression
same,effect on intracellular tyrosinase activity,[4],did not show a significant reduction
"OC[C@H]1O[C@@H](Oc2ccc(O)cc2)[C@H](O)[C@@H](O)[C@@H]1O [Arbutin, reference compound]",melanin content,"B16F10 melanoma cells; 500 µM, 5 µM α-MSH 48 h",124.06%
same,tyrosinase protein expression,[3]; arbutin pre-treatment (positive control),significantly reduced the expression levels
same,intracellular tyrosinase level,[4]; 500 µM,130.75%
"Oc1c(O)c(Br)c(COCc2c(Br)c(O)c(O)c(Br)c2Br)c(Br)c1Br [Compound 3, bis-(2,3,6-tribromo-4,5-dihydroxybenzylmethyl ether)]",IC50,"mushroom tyrosinase [1]; IC50 L-DOPA, substrate L-DOPA",111 ± 4.95 µM
same,IC50,mushroom tyrosinase [1]; [6],2.92 ± 0.04 µM
same,melanin content,"B16F10 melanoma cells; 25 µM, pretreated 1 h then 5 µM α-MSH 48 h",98.68%
same,effect on melanin content,B16F10 melanoma cells; 5 µM α-MSH 48 h,reduced the melanin content in a dose-dependent manner
same,"viability at 48 h, 100 µM",[2],86.9%
same,Ki,mushroom tyrosinase [5],1.98 µM
same,Inhibition Type,"mushroom tyrosinase [5]; substrate L-tyrosine, from Lineweaver-Burk plots",competitive-type inhibition
same,tyrosinase protein expression,"[3]; 6.25, 12.5 and 25 μM, 48 h",inhibited α-MSH-induced accumulation of tyrosinase proteins in a concentration-dependent manner
same,intracellular tyrosinase level,[4]; 25 µM,94.81%
same,effect on intracellular tyrosinase activity,[4],decreased in a dose-dependent manner
